From patent US20140256644A1, “Treatment of Muscular Conditions and Muscular Dystrophies” (priority 2011, published 2014)

Columns and labels:
C2C12 myotubes = assay: Microtubule subunit content in myotubes; format: cell-based
[1] = test system: microtubule network in isolated FDB myofibers; assay: Fluorescence labeling and quantification of α-tubulin (microtubule network density); format: cell-based, mouse; details: Angiotensin II treatment over 24 hrs
Protocol: Isolated intact FBDs were plated on ECM gel from Engelbreth-Holm-Swarm murine sarcoma coated imaging dishes (MatTek, Ashland, Mass.). Following treatment, plated myofibers were fixed with 2% paraformaldehyde, permeabilized with 0.1% Triton X-100 in phosphate buffered saline (PBS), blocked in 8% bovine serum albumin in PBS, and then labeled overnight with an antibody to α-tubulin conjugated to Alexa Fluor 488 (anti-mouse; Invitrogen, Carlsbad, Calif., USA). Digital images were obtained with a BioRad Radiance fluorescent laser scanning confocal attached to an Olympus IX-70 inverted microscope. Laser intensity was adjusted on a sample-to-sample basis to maximize amount of microtubules that are visualized. A 35-image Z-stack was taken at 0.5 μm interval and the most representative 9 frames were stacked together using ImageJ (NIH, USA) to form a composite image. Quantification was performed on the binary image representation of the 9-image stack. Background was subtracted uniformly and image was transformed into a binary using ImageJ unbiased binary function. A uniform region of interest was selected and mean intensity measured.

Angiotensin II: angiotensin II, increases microtubule density
microtubule subunit content (C2C12 myotubes): increased microtubule subunit content
microtubule density in isolated FDB myofibers [1]: increases microtubule density
microtubule density in isolated FDB myofibers ([1]; listed as angiotensin II): densified the microtubule network
